Reference: patent US20210395327A1, “Growth Hormone-Releasing Hormone Antagonists and Uses Thereof” (United States Government As Represented By The Department …, priority 2019, published 2021)
“Also recorded” adds a separate entry of the source. Non-standard residues stand in square brackets, D forms with d. Residues, ends and D or L forms follow the SMILES beside them. *: point of attachment. Phe(F5) = N[C@@H](Cc1c(F)c(F)c(F)c(F)c1F)C(=O)O; hArg = N=C(N)NCCCC[C@H](N)C(=O)O; 12Ado = NCCCCCCCCCCCC(=O)O; Nle = CCCC[C@H](N)C(=O)O; Orn = NCCC[C@H](N)C(=O)O; Abu = CC[C@H](N)C(=O)O; PhAc = O=C(Cc1ccccc1)*

Tests used:
Assay type in all cases: in vivo, C57Bl/6J mice
[1] = tested on: bleomycin-induced lung inflammation and fibrosis; assay: Bleomycin mouse model, lung histopathology scores; settings: bleomycin-treated mice
Protocol: (§1) Abstract. Purpose. Growth hormone-releasing hormone (GHRH) is a 44-amino acid peptide that regulates growth hormone (GH) secretion. It was tested whether a GHRH receptor (GHRH-R) antagonist, MIA-602, would inhibit bleomycin-induced lung inflammation and/or fibrosis in C57Bl/6J mice. Methods. It was tested whether MIA-602 (5 μg or vehicle given subcutaneously [SC] on days 1-21) would decrease lung inflammation (at day 14) and/or fibrosis (at day 28) in mice treated with intraperitoneal (IP) bleomycin (0.8 units on days 1, 3, 7, 10, 14 and 21). […] Results. Inflammation (histopathologic scores assessed blindly) was less evident in mice treated with MIA-602 for 14 days. […] GHRH-R antagonist increased basal and maximal oxygen consumption of cultured lung fibroblasts. […] Conclusions. MIA-602 reduced lung inflammation and fibrosis due to bleomycin.
(§2) Experimental animals. 8-week old C57Bl/6J male mice (The Jackson Laboratory, Bar Harbor, Me.) were used in these experiments. Mice weighed about 26 grams at the start. Mice were randomly allocated to the experimental groups and housed in identical filter top cages in a ventilated rack. Mice were exposed to a 12-hour light/dark cycle and had free access to standard laboratory chow and water.
Bleomycin and GHRH-R antagonist treatment. Mice were treated with 0.8 units of bleomycin (Bleomycin for Injection USP, Hospira, Lake Forest, Ill.) intraperitoneally (IP) on days 1, 3, 7, 10, 14 and 21 (Collins S, Chan-Li Y, Oh M, Vigeland C, Limjunyawong N, Mitzner W, Powell J D, Horton M R (2016). JCI Insight 1(4):1-13). Mice (randomly assigned) were simultaneously treated subcutaneously (sc) with MIA-602 (5 μg/day) or its vehicle (100 μL/day). MIA-602 was dissolved in DMSO (ACS grade; Sigma-Aldrich) and diluted 1:500 in normal saline for daily sc injection on days 0-21.
Tissue preparations. Mice were killed by CO2 inhalation before any treatment, or on days 14 or 28 for micro-CT scans of lungs and harvesting of lung tissue (Vande Vel de G, Poelmans J, De Langhe E, Hillen A, Vanoirbeek J, Himmelreich U, Lories R (2016). Dis Model Mech 9:91). The right mainstem bronchus was ligated and the right lung removed and frozen at −80° C. for hydroxyproline (HP) assays. The left lung was filled with 10% buffered formalin at […] cm H2O pressure, the bronchus ligated, and the lung fixed in formalin. Fixed lungs were embedded in wax and 5 μm sections stained with hematoxylin and eosin (H&E) or Masson's trichrome stain.
Lung histopathology. Fibrosis was quantified in trichrome-stained sections using a modification of the Ashcroft score that describes grades of fibrosis. Inflammation in lung tissue was quantified in H&E stained sections (Hubner R, Gitter W, El Mokhtari N, Mathiak M, Both M, Bolte H, Freitag-Wolf S, Bewig B (2008). Biotechniques 44:507-517).
Data analysis. Data are reported as arithmetic means±SEM or SD as indicated. Confidence intervals (5-95%) and ranges were used to describe histopathological scores. ANOVA followed by Dunnett's test or the Bonnferoni correction was used for multiple comparisons with a control or among groups (Kusuoka H, Hoffman J (2002). Circ Res 91:662-671). At least six mice were planned to be available at each time point in each group, so that there would be sufficient power to detect a 20% change in lung hydroxyproline given an assumed coefficient of variance of 0.2. P≤0.05 was considered significant.

[2] = tested on: gene expression in mouse lung tissue; assay: RNAseq and pathway analysis of lung tissue of bleomycin-treated mice; settings: bleomycin 28 days, MIA-602 vs vehicle
Protocol: RNA isolation. RNA was extracted from fixed lung tissue in paraffin blocks using a Quick-RNA™ FFPE Kit (R1008, Zymo Research, Irvine, Calif.) following the manufacturer's protocol (Patel P, Selvarajah S, Guerard K, Bartlett J, Lapointe J, Berman D, Okello J, Park P (2017). PLoS ONE 12:e0179732). Samples were deparaffinized, digested with proteinase K and decrosslinked at 65° C. for 15 minutes. RNA lysis buffer was added and mixed with ethanol. The mixtures were transferred to spin columns to isolate total RNA.
RNAseq and Pathway analyses. At least 10 ng of total RNA was used as input for the KAPA RNA HyperPrep Kit with RiboErase (HMR) to create ribosomal RNA-depleted sequencing libraries, including sample indexing, to allow for multiplexing. Cluster generation and sequencing was done on the Illumina cBOT and HiSeq 3000 using reagents provided by Illumina, finally generating >32 million single-end 100 base reads per sample.
De-multiplexed FASTQ files were created with Illumina supplied scripts in BCL2FASTQ software (v2.17). […]
Gene counts were normalized using trimmed mean of M-values (TMM) method. Differential expression between groups was calculated with the exact test implemented in edgeR (Robinson M, McCarthy D, Smyth G (2010). Bioinformatics 26:139-140). […]

[3] = tested on: bleomycin-induced lung fibrosis (lung hydroxyproline content); assay: Bleomycin mouse model, lung hydroxyproline assay; settings: bleomycin IP
Protocol: as §1
as §2, with “water. […]” for “water.”
Hydroxyproline assay. […] Hydroxyproline was measured colorimetrically (560 nm) after hydrolysis using an assay kit (MAK008, Sigma-Aldrich, St. Louis, Mo.). […]

CCCC[C@H](NC(=O)[C@@H](NC(=O)[C@H](CC(=O)O)NC(=O)[C@H](CCC(N)=O)NC(=O)[C@H](CC(C)C)NC(=O)[C@H](CC(C)C)NC(=O)[C@H](CCCN)NC(=O)[C@H](Cc1c[nH]cn1)NC(=O)[C@H](C)NC(=O)[C@H](CO)NC(=O)[C@H](CC(C)C)NC(=O)[C@H](CCC(N)=O)NC(=O)[C@H](CC)NC(=O)[C@H](CC(C)C)NC(=O)[C@@H](NC(=O)[C@H](CCCN)NC(=O)[C@H](Cc1c[nH]cn1)NC(=O)[C@H](Cc1ccc(OC)cc1)NC(=O)[C@H](CCCCNC(=N)N)NC(=O)[C@H](C)NC(=O)[C@@H](NC(=O)[C@H](Cc1c(F)c(F)c(F)c(F)c1F)NC(=O)[C@@H](NC(=O)[C@H](C)NC(=O)[C@H](CC(=O)O)NC(=O)[C@@H](CCCNC(=N)N)NC(=O)[C@H](Cc1ccc(O)cc1)NC(=O)CCCCCCCCCCCNC(=O)Cc1ccccc1)[C@@H](C)CC)[C@@H](C)O)C(C)C)[C@@H](C)CC)C(=O)N[C@H](CCCNC(=N)N)C(=O)N[C@@H](CCCCNC(=N)N)C(N)=O [MIA-602, PhAC-Ada, Tyr D-Arg, Asp, Ala, Ile, 5FPhe, Thr, Ala, Har, Tyr(Me), His, Orn, Val, Leu, Abu, Gin, Leu, Ser, Ala, His, Om, Leu, Leu, Gin, Asp, Ile; Nle, D-Arg, Har NH2, reference compound] ({PhAc-12Ado}-Y[dR]DAI[Phe(F5)]TA[hArg]Y(Me)H[Orn]VL[Abu]QLSAH[Orn]LLQDI[Nle][dR][hArg]-NH2)
lung inflammation histopathologic score, 5%-95% CI ([1]; after 14 days, n=4): 0.4-1.4 | lung inflammation histopathologic score, range ([1]; after 14 days, n=4): 0.6-1.2 | lung fibrosis histopathologic score (modified Ashcroft), 5%-95% CI ([1]; after 28 days, n=5): 1.1-2.9 | lung fibrosis histopathologic score (modified Ashcroft), range ([1]; after 28 days, n=5): 1.0-3.0 | lung fibrosis, histopathology (in words) ([1]; MIA-602 vs vehicle): decreased; also recorded: Less fibrosis appeared to be present | lung inflammation, histopathology (in words) ([1]; MIA-602 vs vehicle): decreased; also recorded: Less inflammation appeared to be present | lung gene expression, RNA-seq pathway analysis (in words) [2]: suppression of the adaptive immune response, T cell differentiation and activation and cytokine production; also recorded: downregulation of T cell receptor complex genes (CD3E, CD3G, CD4, and CD8A) | lung hydroxyproline (HP) content, change (in words) ([3]; 14 days, MIA-602 5 μg/day sc): did not increase significantly | lung hydroxyproline (HP) content, change (in words) ([3]; 28 days, MIA-602 5 μg/day sc days 1-21, right lung): increased significantly in bleomycin-treated mice that received vehicle, but not in bleomycin-treated mice that received MIA-602; also recorded: No significant increase in HP content
